Test results taken from patent US6756359B2, “C12 modified erythromycin macrolides and ketolides having antibacterial activity” (Chiron Corporation, priority 2001, dated 2004).
Values after ≈ are worked out from the molar mass of the structure shown.

Key:
Assay in all cases: Antibacterial activity in vitro, MIC by broth microdilution
E. coli Esco_25922 = assay type: cell-based; settings: Table 3, Strain ID M: E. coli Esco_25922; unit assumed
Summary of the method: (§1)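 Broth microdilution per NCCLS in cation-adjusted Mueller-Hinton broth, final inoculum 3×10^5–7×10^5 CFU/mL, 2-fold serial drug dilutions, 35° C. for 18-24 hours. S. pneumoniae grown in CAMHB with 2-5% lysed horse blood under 5-10% CO2. MIC is the lowest concentration preventing visible growth.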

E. faecalis Enfa_29212 = assay type: cell-based; settings: Table 3, Strain ID C: E. faecalis Enfa_29212; unit assumed
Summary of the method: as §1

[1] = system: S. epidermidis Step_14990; assay type: cell-based; settings: Table 3, Strain ID A: S. epidermidis Step_14990; unit assumed
Summary of the method: as §1

[2] = system: S. epidermidis Step_f50654 Pen S; assay type: cell-based; settings: Table 3, Strain ID B: S. epidermidis Step_f50654 Pen S; unit assumed
Summary of the method: as §1

S. pyogenes Stpy_8668 = assay type: cell-based; settings: Table 3, Strain ID D: S. pyogenes Stpy_8668
Summary of the method: as §1

[3] = system: S. pneumoniae Stpn_280-962 Pen S; assay type: cell-based, Streptococcus pneumoniae; settings: Table 3, Strain ID G: S. pneumoniae Stpn_280-962 Pen S
Summary of the method: as §1

[4] = system: S. pneumoniae Stpn_297-749 Pen R; assay type: cell-based, Streptococcus pneumoniae; settings: Table 3, Strain ID F: S. pneumoniae Stpn_297-749 Pen R
Summary of the method: as §1

S. pneumoniae Stpn_49619 = assay type: cell-based, Streptococcus pneumoniae; settings: Table 3, Strain ID E: S. pneumoniae Stpn_49619
Summary of the method: as §1

[5] = system: S. pneumoniae Stpn_Erm 6849; assay type: cell-based, Streptococcus pneumoniae; settings: Table 3, Strain ID H: S. pneumoniae Stpn_Erm 6849; unit assumed
Summary of the method: as §1

[6] = system: S. pneumoniae Stpn_Erm S 4297; assay type: cell-based, Streptococcus pneumoniae; settings: Table 3, Strain ID I: S. pneumoniae Stpn_Erm S 4297
Summary of the method: as §1

[7] = system: S. pneumoniae Stpn_Mef 5654; assay type: cell-based, Streptococcus pneumoniae; settings: Table 3, Strain ID J: S. pneumoniae Stpn_Mef 5654; unit assumed
Summary of the method: as §1

[8] = system: S. pneumoniae Stpn_Mef S 3427; assay type: cell-based, Streptococcus pneumoniae; settings: Table 3, Strain ID K: S. pneumoniae Stpn_Mef S 3427
Summary of the method: as §1

H. influenzae Hain_49247 = assay type: cell-based, Haemophilus influenzae; settings: Table 3, Strain ID L: H. influenzae Hain_49247; unit assumed
Summary of the method: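 Visible-growth inhibition defined the MIC, obtained by NCCLS broth microdilution at 35° C. over 18-24 hours with a final inoculum of 3×10^5–7×10^5 CFU/mL.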

MIC (E. coli Esco_25922) [µg/mL] | MIC (E. faecalis Enfa_29212) [µg/mL] | MIC [1] [µg/mL] | MIC [2] [µg/mL] | MIC (S. pyogenes Stpy_8668) | MIC [3] | MIC [4] | MIC (S. pneumoniae Stpn_49619) | MIC [5] [µg/mL] | MIC [6] | MIC [7] [µg/mL] | MIC ([8]; unit assumed) [µg/mL] | MIC (H. influenzae Hain_49247) [µg/mL] | MIC [8] | MIC ([6]; unit assumed) [µg/mL] | Compound
25 (≈ 30.3 µM) | 0.1 (≈ 0.121 µM) | 0.2 (≈ 0.242 µM) | 0.2 (≈ 0.242 µM) | ≦0.05 | ≦0.05 | ≦0.05 | ≦0.05 | 0.4 (≈ 0.484 µM) | ≦0.05 | 0.4 (≈ 0.484 µM) | 0.1 (≈ 0.121 µM) | 6.25 (≈ 7.57 µM) |  |  | CC[C@H]1OC(=O)[C@H](C)C(=O)[C@H](C)[C@@H](O[C@@H]2O[C@H](C)C[C@H](N(C)C)[C@H]2O)[C@@](C)(OC)C[C@@H](C)C(=O)[C@H](C)[C@H]2N(CCCCn3cnc(-c4cccnc4)c3)C(=O)O[C@]12CC [Compound 7280]
25 (≈ 30.3 µM) | 0.1 (≈ 0.121 µM) | 0.2 (≈ 0.242 µM) | 0.1 (≈ 0.121 µM) | ≦0.05 | ≦0.05 | ≦0.05 | ≦0.05 | 0.2 (≈ 0.242 µM) | ≦0.05 | 0.4 (≈ 0.485 µM) |  | 3.13 (≈ 3.79 µM) | ≦0.05 |  | CC[C@H]1OC(=O)[C@H](C)C(=O)[C@H](C)[C@@H](O[C@@H]2O[C@H](C)C[C@H](N(C)C)[C@H]2O)[C@@](C)(OC)C[C@@H](C)C(=O)[C@H](C)[C@H]2N(CCCCn3cnc(-c4ccccc4)c3)C(=O)O[C@]12CC [Compound 7281]
12.5 (≈ 15.6 µM) | 0.1 (≈ 0.125 µM) | 0.4 (≈ 0.501 µM) | 0.2 (≈ 0.25 µM) | ≦0.05 | ≦0.05 | ≦0.05 | ≦0.05 | 0.78 (≈ 0.976 µM) |  | 0.4 (≈ 0.501 µM) | 0.1 (≈ 0.125 µM) | 3.13 (≈ 3.92 µM) |  | 0.2 (≈ 0.25 µM) | CC[C@H]1OC(=O)[C@H](C)C(=O)[C@H](C)[C@@H](O[C@@H]2O[C@H](C)C[C@H](N(C)C)[C@H]2O)[C@@](C)(OC)C[C@@H](C)C(=O)[C@H](C)[C@H]2N(CCCCn3cnc4ccccc43)C(=O)O[C@]12CC [Compound 7282]
12.5 (≈ 15.4 µM) | 0.1 (≈ 0.123 µM) | 0.2 (≈ 0.247 µM) | 0.2 (≈ 0.247 µM) | ≦0.05 | ≦0.05 | ≦0.05 | ≦0.05 | 0.4 (≈ 0.494 µM) |  | 0.4 (≈ 0.494 µM) |  | 3.13 (≈ 3.86 µM) | ≦0.05 | 0.1 (≈ 0.123 µM) | CC[C@H]1OC(=O)[C@H](C)C(=O)[C@H](C)[C@@H](O[C@@H]2O[C@H](C)C[C@H](N(C)C)[C@H]2O)[C@@](C)(OC)C[C@@H](C)C(=O)[C@H](C)[C@H]2N(CCCCc3ccnc4ccccc34)C(=O)O[C@]12CC [Compound 7283]
